# In patent US11312712B2, “Azabenzimidazoles and their use as AMPA receptor modulators” (Janssen Pharmaceutica NV, priority 2015, dated 2022):
# Biological target: GluA1o-γ8 (GRIA1o-CACNG8 fusion construct) (Homo sapiens (Human), UniProt P42261+Q8WXS5)
# Assay: Calcium flux assay (FLIPR), inhibition of TARP γ8 dependent AMPA receptor activity
# Type: cell-based
# Conditions: GluA1o-γ8 (GRIA1o-CACNG8 fusion) in HEK293 cells, calcium flux after 15 μM glutamate
# Procedure, shortened: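 Glutamate (15 μM) was added to a stable HEK293 line carrying the GluA1o–γ8 fusion, which had been preincubated with compound and calcium dye in HEPES buffer, pH 7.4. Normalized FLIPR fluorescence (no compound vs 10 μM CP465022) was fitted with four parameters; pIC50 is the midpoint's negative log.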
# GluA1o-γ8 (GRIA1o-CACNG8 fusion construct), sequence (P42261 other isoform, or with tags, fused parts or gaps): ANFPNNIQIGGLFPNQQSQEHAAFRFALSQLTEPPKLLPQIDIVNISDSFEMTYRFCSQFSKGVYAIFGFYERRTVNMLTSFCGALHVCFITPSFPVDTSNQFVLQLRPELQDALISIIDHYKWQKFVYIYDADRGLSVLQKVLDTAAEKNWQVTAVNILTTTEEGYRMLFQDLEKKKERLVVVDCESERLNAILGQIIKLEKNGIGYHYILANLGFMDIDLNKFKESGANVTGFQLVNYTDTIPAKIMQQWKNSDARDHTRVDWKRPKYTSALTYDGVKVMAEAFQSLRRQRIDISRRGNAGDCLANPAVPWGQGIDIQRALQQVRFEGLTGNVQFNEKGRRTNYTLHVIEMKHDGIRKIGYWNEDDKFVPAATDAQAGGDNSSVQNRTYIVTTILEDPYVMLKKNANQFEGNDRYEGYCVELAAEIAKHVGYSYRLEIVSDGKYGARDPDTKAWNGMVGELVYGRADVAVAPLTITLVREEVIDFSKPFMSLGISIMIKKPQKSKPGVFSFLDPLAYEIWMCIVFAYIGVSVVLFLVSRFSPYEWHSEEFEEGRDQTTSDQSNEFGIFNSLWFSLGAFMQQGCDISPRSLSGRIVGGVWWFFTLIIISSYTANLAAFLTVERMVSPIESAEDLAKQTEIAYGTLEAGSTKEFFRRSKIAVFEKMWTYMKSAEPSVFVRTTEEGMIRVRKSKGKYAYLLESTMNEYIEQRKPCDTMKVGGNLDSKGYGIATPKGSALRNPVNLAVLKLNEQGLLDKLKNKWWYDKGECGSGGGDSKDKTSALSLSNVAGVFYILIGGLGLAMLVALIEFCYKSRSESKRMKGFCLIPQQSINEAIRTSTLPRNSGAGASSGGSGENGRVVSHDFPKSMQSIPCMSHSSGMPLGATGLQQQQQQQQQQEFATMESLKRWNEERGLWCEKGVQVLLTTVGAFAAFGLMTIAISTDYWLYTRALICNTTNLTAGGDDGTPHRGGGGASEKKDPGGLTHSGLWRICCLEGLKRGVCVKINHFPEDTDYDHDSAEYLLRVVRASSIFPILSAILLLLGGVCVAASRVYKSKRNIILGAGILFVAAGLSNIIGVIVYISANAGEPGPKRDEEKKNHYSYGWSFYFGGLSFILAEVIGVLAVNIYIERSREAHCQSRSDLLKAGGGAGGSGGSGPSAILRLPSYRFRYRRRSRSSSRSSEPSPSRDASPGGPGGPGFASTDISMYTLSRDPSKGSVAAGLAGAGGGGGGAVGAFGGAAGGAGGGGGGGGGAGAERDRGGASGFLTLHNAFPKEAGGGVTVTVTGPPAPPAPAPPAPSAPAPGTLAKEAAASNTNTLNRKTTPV
row,Structure (SMILES),IC50
1,"CC(C)c1nc2ccc(C(F)(F)F)nc2n1-c1ccc2[nH]nc(Br)c2c1 [Example 298, 3-(3-Bromo-1H-indazol-5-yl)-2-isopropyl-5-(trifluoromethyl)imidazo[4,5-b]pyridine]",79.4 nM
2,"CC(C)c1nc2ccc(C(F)(F)F)nc2n1-c1cc(Cl)c2c(c1)CC(=O)N2 [Example 299, 7-Chloro-5-[2-isopropyl-5-(trifluoromethyl)imidazo[4,5-b]pyridin-3-yl]indolin-2-one]",0.2 nM
3,"CC(C)c1nc2cc(F)cnc2n1-c1cc(Cl)c2[nH]ncc2c1 [Example 300, 3-(7-Chloro-1H-indazol-5-yl)-6-fluoro-2-isopropyl-imidazo[4,5-b]pyridine]",2.51 nM
4,"CC(C)c1nc2ccc(C(F)(F)F)nc2n1-c1cnc2c(c1)CC(=O)N2 [Example 301, 5-[2-Isopropyl-5-(trifluoromethyl)imidazo[4,5-b]pyridin-3-yl]-1,3-dihydropyrrolo[2,3-b]pyridin-2-one]",31.6 nM
5,"CC(C)c1nc2ccc(C(F)(F)F)nc2n1-c1cnc2[nH]ncc2c1 [Example 302, 2-Isopropyl-3-(1H-pyrazolo[3,4-b]pyridin-5-yl)-5-(trifluoromethyl)imidazo[4,5-b]pyridine]",39.8 nM
6,"CC(C)c1nc2ccc(C(F)(F)F)nc2n1-c1cnc2[nH]ccc2c1 [Example 303, 2-Isopropyl-3-(1H-pyrrolo[2,3-b]pyridin-5-yl)-5-(trifluoromethyl)imidazo[4,5-b]pyridine]",31.6 nM
7,"C=CCc1cc(-n2c(C(F)(F)F)nc3ccc(C(F)(F)F)nc32)cc2cn[nH]c12 [Example 304, 3-(7-Allyl-1H-indazol-5-yl)-2,5-bis(trifluoromethyl)-3H-imidazo[4,5-b]pyridine]",63.1 nM
8,"C=C(C)c1cc(-n2c(C(F)(F)F)nc3ccc(C(F)(F)F)nc32)cc2cn[nH]c12 [Example 305, 3-(7-(Prop-1-en-2-yl)-1H-indazol-5-yl)-2,5-bis(trifluoromethyl)-3H-imidazo[4,5-b]pyridine]",0.02 nM
9,"FC(F)(F)c1ccc2ncn(-c3cc(Cl)c4[nH]ncc4c3)c2n1 [Example 306, 3-(7-Chloro-1H-indazol-5-yl)-5-(trifluoromethyl)imidazo[4,5-b]pyridine]",2.51 nM
10,"FC(F)(F)c1ccc2nc(C3CC3)n(-c3cc(Cl)c4[nH]ncc4c3)c2n1 [Example 307, 3-(7-Chloro-1H-indazol-5-yl)-2-cyclopropyl-5-(trifluoromethyl)imidazo[4,5-b]pyridine]",0.00501 nM
11,"FC(F)(F)c1ccc2nc(C3CCC3)n(-c3cc(Cl)c4[nH]ncc4c3)c2n1 [Example 308, 3-(7-Chloro-1H-indazol-5-yl)-2-cyclobutyl-5-(trifluoromethyl)imidazo[4,5-b]pyridine]",0.00501 nM
12,"Cc1cc(-n2c(C)nc3ccc(C(F)(F)F)nc32)cc2c1NC(=O)C2 [Example 309, 7-Methyl-5-[2-methyl-5-(trifluoromethyl)imidazo[4,5-b]pyridin-3-yl]indolin-2-one]",0.631 nM
13,"Cc1cc(-n2c(C(C)C)nc3ccc(C(F)(F)F)nc32)cc2c1NC(=O)C2 [Example 310, 5-[2-Isopropyl-5-(trifluoromethyl)imidazo[4,5-b]pyridin-3-yl]-7-methyl-indolin-2-one]",0.158 nM
14,"Cc1cc(-n2c(C(C)C)nc3ccc(C(F)(F)F)nc32)cc2[nH]ncc12 [Example 311, 2-Isopropyl-3-(4-methyl-1H-indazol-6-yl)-5-(trifluoromethyl)imidazo[4,5-b]pyridine]",15.8 nM
15,"Cc1nc2ccc(C(F)(F)F)nc2n1-c1cc(Cl)c2[nH]ncc2c1 [Example 312, 3-(7-Chloro-1H-indazol-5-yl)-2-methyl-5-(trifluoromethyl)imidazo[4,5-b]pyridine]",0.251 nM
16,"Cc1nc2ccc(C(F)(F)F)nc2n1-c1cc(Cl)c2c(c1)CC(=O)N2 [Example 313, 7-Chloro-5-[2-methyl-5-(trifluoromethyl)imidazo[4,5-b]pyridin-3-yl]indolin-2-one]",1 nM
17,"CCc1nc2ccc(C(F)(F)F)nc2n1-c1cc(Cl)c2[nH]ncc2c1 [Example 314, 3-(7-Chloro-1H-indazol-5-yl)-2-ethyl-5-(trifluoromethyl)imidazo[4,5-b]pyridine]",0.0316 nM
18,"CCc1nc2ccc(C(F)(F)F)nc2n1-c1cc(C)c2[nH]ncc2c1 [Example 315, 2-Ethyl-3-(7-methyl-1H-indazol-5-yl)-5-(trifluoromethyl)imidazo[4,5-b]pyridine]",0.1 nM
19,"CC(C)c1nc2ccc(C(F)(F)F)nc2n1-c1cc(Cl)c2[nH]ncc2c1 [Example 316, 3-(7-Chloro-1H-indazol-5-yl)-2-isopropyl-5-(trifluoromethyl)imidazo[4,5-b]pyridine]",0.02 nM
20,"Cc1cc(-n2c(C(F)(F)F)nc3cccnc32)cc2cn[nH]c12 [Example 317, 3-(7-Methyl-1H-indazol-5-yl)-2-(trifluoromethyl)imidazo[4,5-b]pyridine]",10 nM
21,"Cc1cc(-n2c(C(F)(F)F)nc3cccnc32)cc2c1NC(=O)C2 [Example 318, 7-Methyl-5-[2-(trifluoromethyl)imidazo[4,5-b]pyridin-3-yl]indolin-2-one]",31.6 nM

row,Structure (SMILES),IC50
1,"Cc1cc(-n2c(C)nc3ccc(C(F)(F)F)nc32)cc2cn[nH]c12 [Example 319, 2-Methyl-3-(7-methyl-1H-indazol-5-yl)-5-(trifluoromethyl)imidazo[4,5-b]pyridine]",0.631 nM
2,"FC(F)(F)c1nc2ccc(-c3ccccn3)nc2n1-c1ccc2[nH]ncc2c1 [Example 320, 3-(1H-Indazol-5-yl)-5-(2-pyridyl)-2-(trifluoromethyl)imidazo[4,5-b]pyridine]",200 nM
3,"FC(F)c1ccc2nc(C3CC3)n(-c3ccc4[nH]ncc4c3)c2n1 [Example 321, 2-Cyclopropyl-5-(difluoromethyl)-3-(1H-indazol-5-yl)imidazo[4,5-b]pyridine]",1 nM
4,"Fc1ccc(-c2nc3ccc(C(F)F)nc3n2-c2ccc3[nH]ncc3c2)cc1 [Example 322, 5-(Difluoromethyl)-2-(4-fluorophenyl)-3-(1H-indazol-5-yl)imidazo[4,5-b]pyridine]",0.0631 nM
5,"FC(F)c1ccc2nc(-c3ccccc3)n(-c3ccc4[nH]ncc4c3)c2n1 [Example 323, 5-(Difluoromethyl)-3-(1H-indazol-5-yl)-2-phenyl-imidazo[4,5-b]pyridine]",0.0501 nM
6,"FC(F)c1ccc2nc(C(F)(F)F)n(-c3cc(Cl)c4[nH]ncc4c3)c2n1 [Example 324, 3-(7-Chloro-1H-indazol-5-yl)-5-(difluoromethyl)-2-(trifluoromethyl)imidazo[4,5-b]pyridine]",0.0501 nM
7,"O=C1Cc2cc(-n3c(C(F)(F)F)nc4ccc(C(F)F)nc43)cc(F)c2N1 [Example 325, 5-[5-(Difluoromethyl)-2-(trifluoromethyl)imidazo[4,5-b]pyridin-3-yl]-7-fluoro-indolin-2-one]",0.316 nM
8,"Cc1cc(-n2c(C(F)(F)F)nc3ccc(C(F)F)nc32)cc2cn[nH]c12 [Example 326, 5-(Difluoromethyl)-3-(7-methyl-1H-indazol-5-yl)-2-(trifluoromethyl)imidazo[4,5-b]pyridine]",0.0398 nM
9,"Cc1ccc2nc(-c3ccnc(F)c3)n(-c3cc(Cl)c4[nH]ncc4c3)c2n1 [Example 327, 3-(7-Chloro-1H-indazol-5-yl)-2-(2-fluoro-4-pyridyl)-5-methyl-imidazo[4,5-b]pyridine]",0.251 nM
10,"Cc1cc(-n2c(CO)cc3ccc(C(F)(F)F)nc32)cc2c1NC(=O)C2 [Example 329, 5-(2-(Hydroxymethyl)-6-(trifluoromethyl)-1H-pyrrolo[2,3-b]pyridin-1-yl)-7-methylindolin-2-one]",1 nM
11,"OCc1cc2ccc(C(F)(F)F)nc2n1-c1ccc2[nH]ncc2c1 [Example 330, (1-(1H-Indazol-5-yl)-6-(trifluoromethyl)-1H-pyrrolo[2,3-b]pyridin-2-yl)methanol]",25.1 nM
12,"Cc1cc(-n2c(C)cc3ccc(C(F)(F)F)nc32)cc2c1NC(=O)C2 [Example 331, 7-Methyl-5-(2-methyl-6-(trifluoromethyl)-1H-pyrrolo[2,3-b]pyridin-1-yl)indolin-2-one]",0.01 nM
13,"Cc1cc(-n2c(C(C)C)cc3cccnc32)cc2cn[nH]c12 [Example 332, 5-(2-Isopropyl-1H-pyrrolo[2,3-b]pyridin-1-yl)-7-methyl-1H-indazole]",0.0398 nM
14,"Cc1cc2cccnc2n1-c1cc(Cl)c2[nH]ncc2c1 [Example 333, 1-(7-Chloro-1H-indazol-5-yl)-2-methyl-pyrrolo[2,3-b]pyridine]",6.31 nM
15,"Cc1cc(-n2c(C(C)C)cc3ccc(C(F)F)nc32)cc2c1NC(=O)C2 [Example 334, 5-[6-(Difluoromethyl)-2-isopropyl-pyrrolo[2,3-b]pyridin-1-yl]-7-methyl-indolin-2-one]",0.0398 nM
16,"CC(C)c1cc2ccc(C(F)(F)F)nc2n1-c1ccc2[nH]ncc2c1 [Example 335, 1-(1H-Indazol-5-yl)-2-isopropyl-6-(trifluoromethyl)pyrrolo[2,3-b]pyridine]",0.0158 nM
17,"Cc1cc(-n2c(C(F)F)cc3ccc(C(F)(F)F)nc32)cc2c1NC(=O)C2 [Example 336, 5-[2-(Difluoromethyl)-6-(trifluoromethyl)pyrrolo[2,3-b]pyridin-1-yl]-7-methyl-indolin-2-one]",0.01 nM
18,"O=c1[nH]c2ccc(-n3c(C(F)F)cc4ccc(C(F)(F)F)nc43)cc2s1 [Example 337, 6-[2-(Difluoromethyl)-6-(trifluoromethyl)pyrrolo[2,3-b]pyridin-1-yl]-3H-1,3-benzothiazol-2-one]",0.126 nM
19,"Cc1cc2cccnc2n1-c1cc(Cl)c2c(c1)CC(=O)N2 [Example 338, 7-Chloro-5-(2-methylpyrrolo[2,3-b]pyridin-1-yl)indolin-2-one]",7.94 nM
20,"Cc1cc(-n2cc(O)c3ccc(C(F)(F)F)nc32)cc2cn[nH]c12 [Example 339, 1-(7-Methyl-1H-indazol-5-yl)-6-(trifluoromethyl)pyrrolo[2,3-b]pyridin-3-ol]",79.4 nM
